Laboratory results reported in patent publication US6646005B1, “Method of treating hair loss using sulfonyl thyromimetic compounds” (The University of Texas Southwestern Medical Center, priority 1999, dated 2003).

Tested on: male Sprague Dawley rats
Test: Cardiotoxicity Assay (heart-to-body weight ratio)
Type: in vivo, rat
Conditions: 250 μg per kg subcutaneously once daily for 28 days, hearts weighed day 30
Excerpt: The cardiotoxicity assay measures the potential of a test compound to adversely affect the cardiovascular system. As thyroid hormone (T3) damages the cardiovascular system, the heart enlarges. See, e.g., Gomberg-Maitland et al., “Thyroid hormone and Cardiovascular Disease”, American Heart Journal, Vol. 135(2), pp. 187-196 (1998); Klein and Ojamaa, “Thyroid Hormone and the Cardiovascular System”, Current Opinion in Endocrinology and Diabetes, Vol. 4, pp.341-346 (1997); and Klemperer et al., “Thyroid Hormone Therapy and Cardiovascular Disease”, Progress in Cardiovascular Diseases, Vol. 37 (4), pp. 329-336 (1996). This increases the weight of the heart relative to whole body weight. The cardiotoxicity assay herein below is used to test compounds for potentially adverse cardiac effects by measuring their effect on the heart-to-body weight ratio.
Two groups each of six male Sprague Dawley rats (Harlan Sprague Dawley, Inc., Indianapolis, Ind.) (each weighing from approximately 220 grams to 235 grams) are utilized. The first group is a vehicle control group and the second group is a test compound group. The length of the assay is 30 days, with treatment of vehicle or test compound in vehicle daily for 28 of those days as described below.
Prior to initiation of the assay, each rat is allowed to acclimate to standard environmental conditions for 5 days. […]

N[C@@H](Cc1cc(I)c(Oc2cc(I)c(O)c(I)c2)c(I)c1)C(=O)O [T4, thyroxine]
cardiac-sparing (index C = RT/RV, heart/body ratio of test compound group over vehicle control group): not cardiac-sparing
